The test system of the experiment is L1210FR cells. Put plainly: MTT cytotoxicity assay, L1210FR cells. Type of experiment: cell-based. To be noted: read-out: IC50 of drug itself. The procedure: Cell culture. L1210 (ATCC) and L1210FR (a gift from Dr. Gregory Russell-Jones, Access Pharmaceuticals Australia Pty Ltd., Targeted Delivery, Unit 5, 15-17 Gibbes St, Chatswood, NSW, Sydney 2067. Australia) were grown as suspension in a RPMI-1640 cell culture medium (Gibco) in the absence of folic acid (FA) supplemented with 10% (v/v) heat-inactivated fetal bovine serum (FBS) and 1% (v/v) Penicillin and Streptomycin (P/S) at 37° C. in humidified atmosphere with 5% CO2. W1-38 embryonic fibroblast cells (ATCC) were cultured as monolayers on a 100 mm tissue culture dishes in a DMEM cell culture medium (Gibco) supplemented with 10% (v/v) heat-inactivated FBS and 1% (v/v) P/S at 37° C. in humidified atmosphere with 5% CO2. The cells were harvested, collected by centrifugation at 1000 rpm for 6 min, and resuspended in fresh medium at different cell density for biological experiments.
Cytotoxicity assay of conjugate 3. The cells were harvested, collected, and resuspended in 100 μL at a concentration of 2×10^4 cells per well in 96-well plates. For the adhesive cell type, the cells were allowed to reseed to the bottom of the plates overnight and the fresh medium were added to each well upon removal of the old medium. […] At the end of this time, the number of viable cells each wells was determined by a quantitative colorimetric staining assay using a tetrazolium salt (MTT, Sigma Chemical Co.). […]
A general note: Formazan colour is commonly taken as a measure of viable cells.

A word on the IC50: it is the concentration that gives 50% inhibition.

Regarding SB-T-1214-fluorescein, the IC50 is 87.6 nM.

For the origin of these results see patent publication US20100021471A1, “CARBON NANOTUBE-BASED DRUG DELIVERY SYSTEMS AND METHODS OF MAKING SAME” (Brookhaven Science Associates, LLC, priority 2008, published 2010).
